Data as given in patent publication US20110152243A1, “NOVEL THIENOPYRROLE COMPOUNDS” (ABBOTT LABORATORIES, priority 2009, published 2011).

Target: PKCθ (Homo sapiens, UniProt Q04759)
Test: PKCθ enzyme data at 1 mM ATP
Assay type: biochemical

Chain of PKCθ (Q04759 whole entry): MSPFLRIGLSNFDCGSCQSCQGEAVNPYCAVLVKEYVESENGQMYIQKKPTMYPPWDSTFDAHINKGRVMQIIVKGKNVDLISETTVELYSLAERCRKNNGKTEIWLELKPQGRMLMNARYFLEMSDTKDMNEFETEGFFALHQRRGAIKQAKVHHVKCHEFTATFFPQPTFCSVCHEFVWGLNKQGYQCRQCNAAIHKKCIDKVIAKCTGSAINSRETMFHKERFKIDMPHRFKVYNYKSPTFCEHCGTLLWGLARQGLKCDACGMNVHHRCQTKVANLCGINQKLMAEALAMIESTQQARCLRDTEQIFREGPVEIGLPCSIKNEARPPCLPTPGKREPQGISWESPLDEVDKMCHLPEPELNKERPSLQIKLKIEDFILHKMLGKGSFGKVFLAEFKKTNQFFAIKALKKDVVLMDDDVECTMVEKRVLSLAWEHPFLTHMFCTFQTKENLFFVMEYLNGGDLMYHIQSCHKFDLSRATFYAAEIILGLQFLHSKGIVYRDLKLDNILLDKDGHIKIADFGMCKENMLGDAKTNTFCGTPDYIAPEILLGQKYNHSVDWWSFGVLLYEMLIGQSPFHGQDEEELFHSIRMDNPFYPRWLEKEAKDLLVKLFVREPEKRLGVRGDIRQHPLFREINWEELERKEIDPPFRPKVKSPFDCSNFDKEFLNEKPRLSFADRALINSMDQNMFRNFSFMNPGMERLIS

Compound	IC50
O=C1NC(=O)C(c2c[nH]c3ccsc23)=C1c1nc(N2CCNCC2)nc2ccccc12 [G.1.1, 3-(2-(piperazin-1-yl)quinazolin-4-yl)-4-(4H-thieno[3,2-b]pyrrol-6-yl)-1H-pyrrole-2,5-dione]	< 100 nM
O=C1NC(=O)C(c2c[nH]c3sccc23)=C1c1nc(N2CCn3cnc(CO)c3C2)nc2ccccc12 [E.1.50]	< 100 nM
NC1(CO)CCN(c2nc(C3=C(c4c[nH]c5sccc45)C(=O)NC3=O)c3ccccc3n2)CC1 [E.1.57]	< 100 nM
O=C1NC(=O)C(c2c[nH]c3sccc23)=C1c1nc(N2CCNCC2)nc2ccccc12 [G.1.5]	< 100 nM
NC1(C(=O)NC2CC2)CCN(c2nc(C3=C(c4c[nH]c5sccc45)C(=O)NC3=O)c3ccccc3n2)CC1 [E.1.58]	< 100 nM
CN1CCN(c2nc(C3=C(c4c[nH]c5sccc45)C(=O)NC3=O)c3c(F)cccc3n2)CC1 [F.4.1, 3-(5-Fluoro-2-(4-methylpiperazin-1-yl)quinazolin-4-yl)-4-(6H-thieno[2,3-b]pyrrol-4-yl)-1H-pyrrole-2,5-dione]	< 100 nM
CN(C)[C@H]1CC[C@@H](Cn2nc(C3=C(c4c[nH]c5sccc45)C(=O)NC3=O)c3ccccc32)CC1 [F.4.18]	100 to 500 nM
CN1CCC(Cc2nc(C3=C(c4c[nH]c5sccc45)C(=O)NC3=O)c3ccccn23)CC1 [F.4.33]	500 to 1000 nM
CN(C)C1CCN(c2nc(C3=C(c4c[nH]c5ccsc45)C(=O)NC3=O)c3ccccc3n2)CC1 [E.2.3]	< 100 nM
CN1CCC(Cn2nc(C3=C(c4c[nH]c5sccc45)C(=O)NC3=O)c3ccccc32)CC1 [F.4.6]	< 100 nM
Cc1nccn1CC1CCN(c2nc(C3=C(c4c[nH]c5sccc45)C(=O)NC3=O)c3ccccc3n2)CC1 [E.1.3]	100 to 500 nM
CC(C)(CO)N1CCN(c2nc(C3=C(c4c[nH]c5sccc45)C(=O)NC3=O)c3ccccc3n2)CC1 [E.1.56]	< 100 nM
CCC1(N)CCN(c2nc(C3=C(c4c[nH]c5sccc45)C(=O)NC3=O)c3ccccc3n2)CC1 [E.1.43]	< 100 nM
O=C1NC(=O)C(c2c[nH]c3sccc23)=C1c1nc(N2CCC(N3CCC3)CC2)nc2ccccc12 [E.1.13]	< 100 nM
O=C1NC(=O)C(c2c[nH]c3ccsc23)=C1c1nc(N2CCC3(CCCNC3)C2)nc2ccccc12 (stereo not drawn) [G.1.6]	100 to 500 nM
O=C1NC(=O)C(c2c[nH]c3sccc23)=C1c1nc(N2CCC(O)(CN3CCCC3)CC2)nc2ccccc12 [E.1.25]	100 to 500 nM

Compound	IC50
O=C1NC(=O)C(c2c[nH]c3ccsc23)=C1c1nc(NC2CCNCC2)nc2ccccc12 [G.1.8]	100 to 500 nM
CN(C)CC1CCN(c2nc(C3=C(c4c[nH]c5sccc45)C(=O)NC3=O)c3ccccc3n2)CC1 [E.1.5]	< 100 nM
O=C1NC(=O)C(c2nc(N3CCN4CCC[C@@H]4C3)nc3cccc(F)c23)=C1c1c[nH]c2ccsc12 [F.3.2, (R)-3-(5-Fluoro-2-(hexahydropyrrolo[1,2-a]pyrazin-2(1H)-yl)quinazolin-4-yl)-4-(4H-thieno[3,2-b]pyrrol-6-yl)-1H-pyrrole-2,5-dione]	< 100 nM
O=C1NC(=O)C(c2c[nH]c3sccc23)=C1c1nc(N2CCn3cncc3C2)nc2ccccc12 [E.1.46]	< 100 nM
CC(O)c1ncc2n1CCN(c1nc(C3=C(c4c[nH]c5sccc45)C(=O)NC3=O)c3ccccc3n1)C2 (stereo not drawn) [E.1.52]	< 100 nM
CN1CCC(C)(Cn2nc(C3=C(c4c[nH]c5sccc45)C(=O)NC3=O)c3ccccc32)CC1 [F.4.23]	100 to 500 nM
Cc1cccc2c(C3=C(c4c[nH]c5sccc45)C(=O)NC3=O)nc(N3CCN(C)CC3)nc12 [F.4.32]	500 to 1000 nM
O=C1NC(=O)C(c2c[nH]c3sccc23)=C1c1nc(N2CCN3CCC[C@H]3C2)nc2sccc12 [E.3.1]	< 100 nM
CN(C)[C@H]1CCN(c2nc(C3=C(c4c[nH]c5sccc45)C(=O)NC3=O)c3ccccc3n2)C[C@H]1F [E.1.33]	100 to 500 nM
CN1CCN(c2nc(C3=C(c4c[nH]c5sccc45)C(=O)NC3=O)c3sccc3n2)CC1 [F.4.9]	< 100 nM
O=C1NC(=O)C(c2c[nH]c3sccc23)=C1c1nc(N2CCC(CN3CCCC3)CC2)nc2ccccc12 [E.1.11]	100 to 500 nM
CN(C)CCCCn1nc(C2=C(c3c[nH]c4sccc34)C(=O)NC2=O)c2ccccc21 [F.4.27]	500 to 1000 nM
Cc1cccc2nc(N3CCN(C)CC3)nc(C3=C(c4c[nH]c5sccc45)C(=O)NC3=O)c12 [F.4.30]	< 100 nM
O=C1NC(=O)C(c2c[nH]c3sccc23)=C1c1nc(N2CCC3(CCN3)CC2)nc2ccccc12 [E.1.35]	< 100 nM
CN1CCN(c2cc(C3=C(c4c[nH]c5ccsc45)C(=O)NC3=O)c3ccccc3n2)CC1 [F.3.3]	< 100 nM
O=C1NC(=O)C(c2c[nH]c3sccc23)=C1c1nc(N2CCc3nc[nH]c3C2)nc2ccccc12 [E.1.27]	< 100 nM

Results, then the compound that gave them:

IC50	Compound
< 100 nM	CC(C)N1CCN(c2nc(C3=C(c4c[nH]c5sccc45)C(=O)NC3=O)c3ccccc3n2)CC1 [E.1.21]
500 to 1000 nM	O=C1NC(=O)C(c2c[nH]c3ccsc23)=C1c1nc(N2CC3CNCC3C2)nc2ccccc12 (stereo not drawn) [G.1.3]
100 to 500 nM	O=C1NC(=O)C(c2c[nH]c3ccsc23)=C1c1nc(N2CCn3cnnc3C2)nc2ccccc12 [E.2.8]
< 100 nM	CN1CCN(c2nc(C3=C(c4c[nH]c5ccsc45)C(=O)NC3=O)c3ccccc3n2)CC1 [F.1.2, 3-(2-(4-Methylpiperazin-1-yl)quinazolin-4-yl)-4-(4H-thieno[3,2-b]pyrrol-6-yl)-1H-pyrrole-2,5-dione]
500 to 1000 nM	O=C1CN(c2nc(C3=C(c4c[nH]c5sccc45)C(=O)NC3=O)c3ccccc3n2)CCN1 [E.1.7]
< 100 nM	CC(C)(O)CN1CCN(c2nc(C3=C(c4c[nH]c5sccc45)C(=O)NC3=O)c3ccccc3n2)CC1 [E.1.55]
100 to 500 nM	O=C1NC(=O)C(c2c3n(c4ccccc24)CCC(CO)C3)=C1c1c[nH]c2sccc12 (stereo not drawn) [Example #1, 3-(8-(Hydroxymethyl)-6,7,8,9-tetrahydropyrido[1,2-a]indol-10-yl)-4-(6H-thieno[2,3-b]pyrrol-4-yl)-1H-pyrrole-2,5-dione]
< 100 nM	CN(C)C1CCN(c2nc(C3=C(c4c[nH]c5sccc45)C(=O)NC3=O)c3ccccc3n2)CC1CO (stereo not drawn) [E.1.37]
< 100 nM	CN(C)Cc1ncc2n1CCN(c1nc(C3=C(c4c[nH]c5sccc45)C(=O)NC3=O)c3ccccc3n1)C2 [E.1.51]
100 to 500 nM	CN(C)C1(C)CCN(c2nc(C3=C(c4c[nH]c5sccc45)C(=O)NC3=O)c3ccccc3n2)CC1 [E.1.41]
< 100 nM	CN1CC[C@H](Cn2nc(C3=C(c4c[nH]c5sccc45)C(=O)NC3=O)c3ccccc32)[C@H](F)C1 (relative stereo) [F.4.4]
500 to 1000 nM	O=C1NC(=O)C(c2c[nH]c3sccc23)=C1c1nc(N2CCN3C(=O)OCC3C2)nc2ccccc12 (stereo not drawn) [E.1.15]
< 100 nM	O=C1NC(=O)C(c2c[nH]c3sccc23)=C1c1nc(N2CCN(CCO)CC2)nc2ccccc12 [E.1.19]
100 to 500 nM	O=C1NC(=O)C(c2nn(CC3CCN(CCF)CC3)c3ccccc23)=C1c1c[nH]c2sccc12 [F.4.20]
< 100 nM	O=C1NC(=O)C(c2nn(C[C@H]3CCNC[C@H]3F)c3ccccc23)=C1c1c[nH]c2sccc12 (relative stereo) [G.1.17]
100 to 500 nM	O=C1NC(=O)C(c2c[nH]c3ccsc23)=C1c1nc(N2CCC(N3CCOCC3)CC2)nc2ccccc12 [E.2.5]
< 100 nM	Cc1ncc2n1CCN(c1nc(C3=C(c4c[nH]c5sccc45)C(=O)NC3=O)c3ccccc3n1)C2 [E.1.26]

IC50	Compound
< 100 nM	O=C1NC(=O)C(c2c[nH]c3sccc23)=C1c1nc(N2CC[C@H](N3CCCC3)[C@@H](F)C2)nc2ccccc12 [E.1.30]
< 100 nM	CN1CCN(c2nc(C3=C(c4c[nH]c5sccc45)C(=O)NC3=O)c3cc(Cl)ccc3n2)CC1 [F.4.13]
< 100 nM	CN1CCC(Cn2cc(C3=C(c4c[nH]c5sccc45)C(=O)NC3=O)c3ccccc32)CC1 [F.4.17]
100 to 500 nM	O=C1NC(=O)C(c2c[nH]c3sccc23)=C1c1nc(N2CCC3(CC2)CNC3)nc2ccccc12 [G.1.13]
< 100 nM	O=C1NC(=O)C(c2c[nH]c3ccsc23)=C1c1nc(N2CCN3CCC[C@H]3C2)nc2ccccc12 [E.2.4]
< 100 nM	CN1CCN(c2nc(C3=C(c4c[nH]c5sccc45)C(=O)NC3=O)c3ccncc3n2)CC1 [F.4.24]
< 100 nM	CN1CCN(c2nc(C3=C(c4c[nH]c5sccc45)C(=O)NC3=O)c3cc(F)ccc3n2)CC1 [F.4.15]
< 100 nM	O=C1NC(=O)C(c2c[nH]c3sccc23)=C1c1nc(N2CCC23CCNCC3)nc2ccccc12 [E.1.36]
< 100 nM	O=C1NC(=O)C(c2c[nH]c3sccc23)=C1c1nc(N2CC[C@@H]3NCC[C@@H]3C2)nc2ccccc12 (relative stereo) [G.1.19]
< 100 nM	CCc1ncc2n1CCN(c1nc(C3=C(c4c[nH]c5sccc45)C(=O)NC3=O)c3ccccc3n1)C2 [E.1.47]
< 100 nM	CN1CCN(c2nc(C3=C(c4c[nH]c5sccc45)C(=O)NC3=O)c3ccsc3n2)CC1 [F.4.2, 3-(2-(4-Methylpiperazin-1-yl)thieno[2,3-d]pyrimidin-4-yl)-4-(6H-thieno[2,3-b]pyrrol-4-yl)-1H-pyrrole-2,5-dione]
100 to 500 nM	N#CC1CCN(c2nc(C3=C(c4c[nH]c5sccc45)C(=O)NC3=O)c3ccccc3n2)CC1 [E.1.9]
< 100 nM	CN1CCN(c2nc(C3=C(c4c[nH]c5sccc45)C(=O)NC3=O)c3ccccc3n2)CC1 [F.1.1, 3-(2-(4-Methylpiperazin-1-yl)quinazolin-4-yl)-4-(6H-thieno[2,3-b]pyrrol-4-yl)-1H-pyrrole-2,5-dione]
500 to 1000 nM	O=C1NC(=O)C(c2c[nH]c3ccsc23)=C1c1nc(NCC2CCCCN2)nc2ccccc12 (stereo not drawn) [G.1.9]
< 100 nM	CN1CCN(c2nc(C3=C(c4c[nH]c5ccsc45)C(=O)NC3=O)c3c(F)cccc3n2)CC1 [F.3.1, 3-(5-Fluoro-2-(4-methylpiperazin-1-yl)quinazolin-4-yl)-4-(4H-thieno[3,2-b]pyrrol-6-yl)-1H-pyrrole-2,5-dione]
100 to 500 nM	COCCN1CCC(Cn2nc(C3=C(c4c[nH]c5sccc45)C(=O)NC3=O)c3ccccc32)C1 (stereo not drawn) [F.4.26]
100 to 500 nM	O=C1NC(=O)C(c2c[nH]c3sccc23)=C1c1nc(N2C[C@@H]3C[C@H]2CN3)nc2ccccc12 [G.1.2]
